Test [1] has as its system L1210 murine leukemia cell lines. The test can be described thus: In vitro antitumor screening (PDC test), L1210 murine leukemia cell growth. It is filed as cell-based. The conditions noted are these: Mus musculus, 72 h; L1210 cells, 37° C., three days; value is ID50 multiplied by 10^7. How it is done:
Another test protocol is the in vitro antitumor screening (PDC test) of compounds of the present invention on L1210 murine leukemia cell lines. L1210 cells, a murine leukemia cell line, were grown in RPMI 1640 supplemented with 5% fetal bovine serum and gentamicin (50 μg/ml).
Drug dilutions were prepared in the apropriate solvent and 20 μl of each dilution were added to 24-well Linbro tissue culture plats, followed by the addition of M 2.0 ml of cell suspension containing 3×10^4 cells per ml. Solvent and medium controls were included in each test. After incubation at 37° C. for three days in 5% CO2, the contents of each well were removed and the cells counted in a ZBI Coulter counter. Percent growth was calculated relative to the controls and the levels of drug activity wre expressed as ID50 in moles per liter using probit paper.

The next test deals with HCT-8 cells. The test can be described thus: In vitro proliferating human colon adenocarcinoma (HCA) cell screen, HCT-8 cells.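 Further: ID50 is the molar concentration giving 50% growth inhibition.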 The conditions noted are these: 60-65 hours at 37° C., value is ID50 multiplied by 10^7. The format is cell-based. How it is done:
One test protocol is the in vitro proliferating human colon adenocarcinoma (HCA) cell screen. In this test, HCT-8 cells (HCA cell line received from Yale University) are trypsinized using trypsin-EDTA. A single cell suspension is achieved by passing the cells through a 26-gauge needle with a 20-cc syringe. A cell suspension is prepared using RPMI 1640+10% FCS+50 μg/ml gentamicin sulfate with a cell concentration of approximately 5,000 cells/ml. The cell suspension is dispensed in Linbro 24-well plates; 1 ml/well. The plates are incubated for approximately 48 hours at 37° C. in a 5% CO2 atmosphere. At this time test compounds are added in the appropriate concentration. Ten μl of the appropriate dilution is added to each well for a titration test. The plates are reincubated an additional 60-65 hours at 37° C. in a 5% CO2 atmosphere. The cells are lysed using a mix of cationic surfactant, glacial acetic acid and sodium chloride. Two ml of the lysed cell suspension from each well is added to 8 ml of diluent. The number of nuclei is determined using a Coulter counter (ZBI model), and a percent growth for each drug concentration is calculated.

In test [2] the test system is lymphocytic leukemia P388. In words: In vivo lymphocytic leukemia P388 test. Also noted: species or system CD2 F1 mice. Conditions: Mus musculus, P388, ip, read-out: P388 in vivo T/C × 100. How it is done:
Another test protocol is the in vivo lymphocytic leukemia P388 test. the animals used are either male or female CD2 F1 mice, six or seven animals per test group. The tumor transplant is by intraperitoneal injection of dilute ascitic fluid containing cells of lymphocytic leukemia P388. The test compounds are administered intraperitoneally once daily for five consecutive days at various doses following tumor inoculation. The animals are weighed and survivors are recorded on a regular basis for 30 days. A compound is designated "toxic" if, at a given dose, all animals die prior to four days after the first injection of drug. A ratio of survival time for treated (T)/control (C) animals is calculated. A criterion for efficacy is a ratio T/C times 100 greater than or equal to 125. See Cancer Chemotherapy Reports, Part 3, 3, 1 (1972) for a comprehensive discussion of the protocol.

A further test has as its system Escherichia coli. In words: In vitro antibacterial (ABMF) microdilution test, Escherichia coli. Conditions: Mueller-Hinton broth, 37° C., 16-24 hours, read-out: ABMF minimal inhibitory conc, E. coli. The format is cell-based. The text has this: (§1) Still another test protocol is the in vitro antibacterial (ABMF) test which is a recognized standard microdilution susceptibility procedure in Mueller-Hinton broth against Gram-positive and Gram-negative bacterial test organisms. The procedure is a modification of a state-of-the-art procedure reported in Manual of Clinical Microbiology, Lennette, E. H., ed., by Barry, A. L. and C. Thornsberry at pages 463-474 and by Gavan, T. L. and A. L. Barry at pages 459-462, American Society for Microbiology, Washington, 1980.
(§2) In the test, a given bacterial culture is used to inoculate individual test wells of microdilution trays containing growth medium and test compound, the latter in a microdilution series: 1000, 333, 111, 37, 12, 4, 1.4, and 0.46 micrograms per milliliter. […] For convenience, values are reported for Escherichia coli, Corynebacterium Sp. ATCC 21698, Branhamella catarrhalis, Streptococcus pneumoniae, and Bacillus cereus.
(In general: Broth dilution looks for growth in wells or tubes with falling amounts of substance.)

In test [3] the test system is Corynebacterium Sp. ATCC 21698. The test can be described thus: In vitro antibacterial (ABMF) microdilution test, Corynebacterium Sp. Conditions: ATCC21698, Mueller-Hinton broth, 37° C., 16-24 hours, read-out: ABMF minimal inhibitory conc, Coryn. Species. The format is cell-based.
Text: as §1, §2

Another test relates to Branhamella catarrhalis. In words: In vitro antibacterial (ABMF) microdilution test, Branhamella catarrhalis. Conditions: Moraxella catarrhalis; Mueller-Hinton broth, 37° C., 16-24 hours; read-out: ABMF minimal inhibitory conc, B. cat. The format is cell-based.
Text: as §1, §2

The next test has as its system Streptococcus pneumoniae. In words: In vitro antibacterial (ABMF) microdilution test, Streptococcus pneumoniae. It is filed as cell-based. The conditions noted are these: Mueller-Hinton broth, 37° C., 16-24 hours, read-out: ABMF minimal inhibitory conc, S. pneu.
Text: as §1, §2

A further test deals with Bacillus cereus. In words: In vitro antibacterial (ABMF) microdilution test, Bacillus cereus. It is filed as cell-based. The conditions noted are these: Mueller-Hinton broth, 37° C., 16-24 hours, read-out: ABMF minimal inhibitory conc, B. cer.
Text: as §1, §2

Where [4] appears, read: intraperitoneal, once daily for five days, survival time treated/control.
[5] abbreviates: 50 mg/kg, intraperitoneal, once daily for five days, survival time treated/control.

pIC50: −log10 of the molar value. Like-named read-outs stand apart in the source and are kept apart here.

For the molecule `COc1ccc2[nH]c3c([N+](=O)[O-])ccc(NC(C)CN(C)C)c3c(=O)c2c1` (stereo not shown) [Example 12, 1-[[2-Dimethylamino)-1-methylethyl]amino]-7-methoxy-4-nitro-9(10H)-acridinone, methanesulfonate, 1.25 hydrate], the pIC50 in test [1] was 6.06; with HCT-8 cells, 6.35. For the same molecule, the response vs control in vivo at 25 mg/kg in test [2] (setting [4]) is 122%. The response vs control in vivo at 50 mg/kg in test [2] (setting [5]) came to 144%. Further, in test [2] (setting [4]), the response vs control in vivo at 100 mg/kg worked out at 180%. For the same molecule, the response vs control in vivo at 200 mg/kg in test [2] (setting [4]) worked out at 245%. The MIC with Escherichia coli is 1.4 µg/mL; in test [3] it was 4.1 µg/mL; in the test on Branhamella catarrhalis, 4.1 µg/mL; in the test on Streptococcus pneumoniae, under 0.46 µg/mL; in the test on Bacillus cereus it was 4.1 µg/mL.
Turning to `CN(C)CCCNc1ccc([N+](=O)[O-])c2[nH]c3ccccc3c(=O)c12.CS(=O)(=O)O` [Example 20, 1-[[3-(Dimethylamino)propyl]amino]-4-nitro-9(10H)-acridinone, methanesulfonate (1:1)], the results for the pIC50 (in test [1]; in the test on HCT-8 cells) were 6.24 and 6.70, respectively. The response vs control in vivo at 50 mg/kg in test [2] (setting [5]) is 144%. The response vs control in vivo at 100 mg/kg in test [2] (setting [4]) is 189%. The MIC in the test with Escherichia coli is 1.4 µg/mL; in test [3], under 0.46 µg/mL; in the test with Branhamella catarrhalis, under 0.46 µg/mL; with Streptococcus pneumoniae, under 0.46 µg/mL; in the test with Bacillus cereus, 4.1 µg/mL.
Turning to `COc1ccc2c(c1)c(=O)c1c(NCCCN(C)C)ccc([N+](=O)[O-])c1n2C.CS(=O)(=O)O` [Example 34, 1-[[3-(Dimethylamino)propyl]amino]-7-methoxy-10-methyl-4-nitro-9(10H)-acridinone, methanesulfonate (1:1)], the figures for the pIC50 (in test [1]; in the test with HCT-8 cells) were 6.11 and 6.15, respectively. Further, the response vs control in vivo at 50 mg/kg in test [2] (setting [5]) amounted to 123%. Also, the response vs control in vivo at 100 mg/kg in test [2] (setting [4]) was found to be 136%. Further, the MIC (in the test with Escherichia coli; in test [3]; in the test with Branhamella catarrhalis; in the test on Streptococcus pneumoniae; in the test with Bacillus cereus) was 12.3 µg/mL each time.
For the molecule `CCN(CC)CCNc1ccc([N+](=O)[O-])c2[nH]c3ccc(OC)cc3c(=O)c12.CS(=O)(=O)O` [Example 3, 1-[[2-(Diethylamino)ethyl]amino]-7-methoxy-4-nitro-9(10H)-acridinone, methanesulfonate (1:1)], the pIC50 in test [1] was 5.62; in the test with HCT-8 cells, 5.96. In addition, the response vs control in vivo at 12.5 mg/kg in test [2] (12.5 mg/kg, intraperitoneal, once daily for five days, survival time treated/control) worked out at 126%. In addition, in test [2] (setting [4]), the response vs control in vivo at 25 mg/kg came to 151%. Besides, in test [2] (setting [5]), the response vs control in vivo at 50 mg/kg came to 178%. For the same molecule, the response vs control in vivo at 100 mg/kg in test [2] (setting [4]) stood at 237%. The response vs control in vivo at 200 mg/kg in test [2] (setting [4]) was 296%. Further, the MIC with Escherichia coli was 111 µg/mL; in test [3], under 0.46 µg/mL; in the test on Branhamella catarrhalis, under 0.46 µg/mL; in the test with Streptococcus pneumoniae, under 0.46 µg/mL; in the test with Bacillus cereus it was 4.1 µg/mL.
On to `CCOc1ccc2[nH]c3c([N+](=O)[O-])ccc(NC(C)CN(C)C)c3c(=O)c2c1` (stereo not shown) [Example 13, 1[[2-(Dimethylamino)-1-methylethyl]amino]-7-ethoxy-4-nitro-9(10H)-acridinone, monomethanesulfonate, hyrate], for which the negative logarithm of the IC50 (pIC50) is 5.96 in test [1] and 6.30 with HCT-8 cells. In addition, the response vs control in vivo at 50 mg/kg in test [2] (120 h) came out at 227%. In test [2] (setting [4]), the response vs control in vivo at 25 mg/kg was found to be 180%. The MIC in the test on Escherichia coli is 12.3 µg/mL; in test [3], under 0.46 µg/mL; in the test with Branhamella catarrhalis, 4.1 µg/mL; in the test with Streptococcus pneumoniae, 1.4 µg/mL; in the test on Bacillus cereus, 12.3 µg/mL.
On to `O=c1c2ccccc2[nH]c2c([N+](=O)[O-])ccc(NCCNCCO)c12` [Example 16, 1-[[2-[(2-hydroxyethyl)amino]ethyl]amino]-4-nitro-9(10H)-acridinone, methanesulfonate (1:1), hydrate (1:1)], for which the pIC50 in test [1] was 6.48; in the test on HCT-8 cells, 6.70. Further, the response vs control in vivo at 25 mg/kg in test [2] (setting [4]) worked out at 125%. Besides, the response vs control in vivo at 50 mg/kg in test [2] (setting [5]) amounted to 159%. The MIC in the test on Escherichia coli was 1.4 µg/mL; in test [3], under 0.46 µg/mL; with Branhamella catarrhalis it was under 0.46 µg/mL; in the test on Streptococcus pneumoniae, 1.4 µg/mL; in the test on Bacillus cereus it was 1.4 µg/mL.
`CCOc1ccc2[nH]c3c([N+](=O)[O-])ccc(NCCN(CCO)CCO)c3c(=O)c2c1` [Example 19, 1-[[2-Bis(2-hydroxyethyl)amino]ethyl]amino]-7-ethoxy-4-nitro-9(10H)-acridinone, methanesulfonate 0.8 hydrate]: the pIC50 in test [1] is 5.82; in the test with HCT-8 cells it was 6.00. For the same molecule, in test [2] (setting [4]), the response vs control in vivo at 100 mg/kg worked out at 130%. For the same molecule, in test [2] (setting [4]), the response vs control in vivo at 200 mg/kg came out at 147%. For the same molecule, the MIC is over 1000 µg/mL in the test with Escherichia coli; over 1000 µg/mL in test [3]; 111 µg/mL with Branhamella catarrhalis; over 1000 µg/mL in the test with Streptococcus pneumoniae; over 1000 µg/mL in the test with Bacillus cereus.
In the case of `CCN(CC)CCNc1ccc([N+](=O)[O-])c2[nH]c3ccc(N(C)C)cc3c(=O)c12.CS(=O)(=O)O` [Example 7, 1-[[2-(Diethylamino)ethyl]amino]-7-(dimethylamino)-4-nitro-9(10H)-acridinone, methanesulfonate (1:1)], the pIC50 is 5.89 in test [1] and 6.25 in the test on HCT-8 cells. Also, the response vs control in vivo at 50 mg/kg in test [2] (setting [5]) turned out to be 33%. Moreover, in test [2] (setting [4]), the response vs control in vivo at 100 mg/kg came out at 169%. The MIC is over 1000 µg/mL in the test with Escherichia coli; 111 µg/mL in test [3]; over 1000 µg/mL with Branhamella catarrhalis; 37 µg/mL in the test on Streptococcus pneumoniae; over 1000 µg/mL with Bacillus cereus.
As to `COc1ccc2[nH]c3c([N+](=O)[O-])ccc(NCCN(C)C)c3c(=O)c2c1.CS(=O)(=O)O` [Example 9, 1-[[2-(Dimethylamino)ethyl]amino]-7-methoxy-4-nitro-9(10H)-acridinone, methanesulfonate (1:1)], the pIC50 in test [1] was 6.59; with HCT-8 cells it was 6.05. For the same molecule, in test [2] (setting [4]), the response vs control in vivo at 25 mg/kg was determined as 124%. The response vs control in vivo at 50 mg/kg in test [2] (setting [5]) was found to be 146%. The response vs control in vivo at 100 mg/kg in test [2] (setting [4]) was determined as 201%. Besides, the response vs control in vivo at 200 mg/kg in test [2] (setting [4]) was found to be 269%. The MIC was over 1000 µg/mL in the test on Escherichia coli; under 0.46 µg/mL in test [3]; under 0.46 µg/mL in the test on Branhamella catarrhalis; under 0.46 µg/mL in the test with Streptococcus pneumoniae; over 1000 µg/mL with Bacillus cereus.

Broadly, the pIC50 is the IC50 on a negative log10 scale, so that one unit is a factor of ten. Low readings indicate a high IC50, high ones a low IC50.

(Values after patent US4626540A, “Substituted 1-amino-4-nitro-acridinones and methods of treating bacterial infections and leukemia with them” (Warner-Lambert Company, priority 1984, dated 1986).)
